# ChEMBL document CHEMBL1201862, “PubChem BioAssay data set” (2004)
#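 The compound was tested at five concentrations on cells cultured in 96-well plates, with a 48-hour exposure period. GI50 = concentration required for 50% inhibition of growth.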 The source made the active and inactive calls. No stated cut-off is given here; in the data, active = GI50 up to about 1.1 µM and inactive = higher.
# Assays:
# Experiment in all cases: inhibition of tumour cell growth, NCI panel, 48 h
# HOP-18 = system: HOP-18
# XF498 = system: XF498
# DLD-1 = system: DLD-1
# DMS-114 = system: DMS-114
# KM-20L2 = system: KM-20L2
# RXF 631 = system: RXF 631
# LXFL 529 = system: LXFL 529
# DMS-273 = system: DMS-273
# BT-549 = system: BT-549
Structure (SMILES),GI50 (HOP-18),GI50 (XF498),GI50 (DLD-1),GI50 (DMS-114),GI50 (KM-20L2),GI50 (RXF 631),GI50 (LXFL 529),GI50 (DMS-273),GI50 (BT-549)
Cc1cnoc1/N=C1\C=C(Nc2oncc2C)C(=O)c2ccccc21,> 100 µM (inactive),> 100 µM (inactive),> 100 µM (inactive),46.8 µM (inactive),> 100 µM (inactive),> 100 µM (inactive),79.1 µM (inactive),> 100 µM (inactive),–
NCCOc1ccc(/C(=C(/Cl)c2ccccc2)c2ccccc2)cc1,–,5.6 µM (inactive),15.6 µM (inactive),12.9 µM (inactive),6.62 µM (inactive),11.4 µM (inactive),7.1 µM (inactive),10.6 µM (inactive),–
Clc1ccccc1C(n1cc(Br)cn1)n1cc(Br)cn1,–,17.5 µM (inactive),18.6 µM (inactive),21.4 µM (inactive),–,> 10 µM (inactive),95.7 µM (inactive),17.8 µM (inactive),–
CC(=O)CC(=O)CCCC(=O)Nc1ccc(Cl)cc1Cl,25.2 µM (inactive),> 100 µM (inactive),> 100 µM (inactive),–,> 100 µM (inactive),> 100 µM (inactive),> 100 µM (inactive),> 100 µM (inactive),–
COC(=O)C1=C(c2ccc3c(c2)OCO3)O[C@H](c2cc(OC)c(OC)c(OC)c2)[C@H]1COC(C)=O,15.2 µM (inactive),4.25 µM (inactive),7.19 µM (inactive),1.15 µM (inactive),2.14 µM (inactive),–,2.94 µM (inactive),2.64 µM (inactive),–
COc1ccc(S(=O)(=O)N/N=C\c2cc([N+](=O)[O-])cc(I)c2O)c(OC)c1OC,23.3 µM (inactive),20.7 µM (inactive),28.8 µM (inactive),25.1 µM (inactive),36.2 µM (inactive),–,> 10 µM (inactive),32.4 µM (inactive),–
Cc1ccc(S(=O)(=O)CC(=O)CC(=O)C(=O)Nc2cccc(C(F)(F)F)c2)cc1,–,> 100 µM (inactive),> 100 µM (inactive),–,> 100 µM (inactive),> 100 µM (inactive),> 100 µM (inactive),> 100 µM (inactive),–
CC1=C(C(=O)Nc2ccccc2C)C(c2ccc([N+](=O)[O-])cc2)C(C(=O)Nc2ccccc2C)=C(C)N1,55.2 µM (inactive),40.3 µM (inactive),50 µM (inactive),33.3 µM (inactive),51.9 µM (inactive),76.6 µM (inactive),35.6 µM (inactive),43.4 µM (inactive),–
CC(=O)C1CC=C(C)CC1 (stereo unspecified),> 100 µM (inactive),> 100 µM (inactive),> 100 µM (inactive),> 100 µM (inactive),> 100 µM (inactive),> 100 µM (inactive),> 100 µM (inactive),> 100 µM (inactive),–
O=C1c2ccc3c4ccccc4n(-c4ccccc4)c3c2C(=O)N1c1ccc(Cl)cc1,–,–,> 100 µM (inactive),> 100 µM (inactive),> 100 µM (inactive),> 100 µM (inactive),> 100 µM (inactive),> 100 µM (inactive),–
CCOC1(COP(=O)(OCc2ccccc2)OCc2ccccc2)COC(COP(=O)(OCc2ccccc2)OCc2ccccc2)(OCC)CO1 (stereo unspecified),> 100 µM (inactive),> 100 µM (inactive),> 100 µM (inactive),–,> 100 µM (inactive),9.44 µM (inactive),> 100 µM (inactive),> 100 µM (inactive),–
CCOC(=O)C1=C(C)N(c2ccccc2)C2=C(C(=O)N(c3ccccc3)C2c2ccccc2)C1c1ccccc1 (stereo unspecified),> 100 µM (inactive),> 100 µM (inactive),> 100 µM (inactive),> 100 µM (inactive),> 100 µM (inactive),> 100 µM (inactive),> 100 µM (inactive),> 100 µM (inactive),–
O=C(Nc1ccc(Nc2ccc(NC(=O)c3ccccc3)c3c2C(=O)c2ccccc2C3=O)c2c1C(=O)c1ccccc1C2=O)c1ccccc1,> 100 µM (inactive),–,> 100 µM (inactive),> 100 µM (inactive),> 100 µM (inactive),> 100 µM (inactive),> 100 µM (inactive),> 100 µM (inactive),–
COc1ccccc1/C=C1\CCC(Cc2ccccc2)(CN(C)C)C1=O (stereo unspecified),> 26.4 µM (inactive),4.3 µM (inactive),0.414 µM (active),2.23 µM (inactive),0.644 µM (active),1.85 µM (inactive),4.55 µM (inactive),0.294 µM (active),5 µM (inactive)
COC1C(CO)OC(n2c3c(Cl)cccc3c3c4c(c5c6cccc(Cl)c6[nH]c5c32)C(=O)NC4=O)C(O)C1O (stereo unspecified),–,0.27 µM (active),0.568 µM (active),0.258 µM (active),0.586 µM (active),0.249 µM (active),0.33 µM (active),0.208 µM (active),0.162 µM (active)
CC(C)NC(=O)OCc1c(COC(=O)NC(C)C)c(-c2ccc(Cl)c(Cl)c2)n2c1CCC2,> 61.2 µM (inactive),45.7 µM (inactive),> 51.5 µM (inactive),33.7 µM (inactive),35.1 µM (inactive),–,3.6 µM (inactive),> 49.2 µM (inactive),> 100 µM (inactive)
CCN(CC)CCOC(=O)/C(=C/c1ccc(OC)cc1)c1cc(OC)c(OC)c(OC)c1,30.4 µM (inactive),–,28.1 µM (inactive),4.81 µM (inactive),11.9 µM (inactive),7.66 µM (inactive),5.45 µM (inactive),4.29 µM (inactive),–
Cc1cc(C(=C2C=CC(=[N+](C)C)C=C2)c2ccc([N+](C)(C)C)cc2)ccc1N(C)C,–,1.36 µM (inactive),6.65 µM (inactive),4.67 µM (inactive),5.48 µM (inactive),7.91 µM (inactive),6.98 µM (inactive),5.01 µM (inactive),–
